Test results: patent US20210330611A1, “THERAPY FOR NEUROLOGICAL DISEASES/DISORDERS” (priority 2020, published 2021)
Where “and” joins values, the source holds several entries; their conditions need not be identical. Equal entries are not always repeated. Structures can show the parent of a compound that is named as a salt. Where two headings read alike, the source gives them in different places.

Assays:
[1] = tested on: primary rat microglia;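 as to Fibrin % cell toxicity: share of dead cells sized under 150 µm2 at 10 µM in fibrin-stimulated microglia HTS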
[2] = tested on: fibrin- and LPS-induced microglia activation; assay: cells; type: cell-based, rat; conditions: for inhibition at 10 µM: Rattus norvegicus, Microglia
[3] = tested on: fibrin-induced microglia activation; assay: Image-based assay of fibrin-induced microglia activation (HTS and dose response); type: cell-based, rat; conditions: for inhibition at 10 µM: Rattus norvegicus, Microglia, read-out: Fibrin % inhibition
[4] = tested on: LPS-induced microglia activation; assay: Image-based assay of LPS-induced microglia activation (HTS and dose response); type: cell-based, rat
[5] = tested on: primary rat microglia; remark: listed apart in the source;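 as to Fibrin % cell toxicity: share of dead cells sized under 150 µm2 at 10 µM in fibrin-stimulated microglia HTS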
[6] = quadrant by fibrin and LPS inhibition in HTS of 1907 compounds
[7] = classification by fibrin and LPS inhibition, HTS at 10 μM
[8] = primary microglia HTS, fibrin stimulation, compounds at 10 μM
[9] = Rattus norvegicus, Microglia, primary microglia HTS, LPS stimulation, compounds at 10 μM; read-out: LPS % inhibition
[10] = Rattus norvegicus, Microglia, 48 h, read-out: LPS % inhibition
[11] = classification by fibrin and LPS inhibition in HTS
[12] = primary microglia HTS, fibrin stimulation, cell size >800 μm2 as marker of activation
[13] = Rattus norvegicus, Microglia, 48 h; read-out: LPS % inhibition

| Molecule | Fibrin % cell toxicity ([1]; rat) [%] | Quadrant (FIG. 5b) [2] | LPS % cell toxicity ([5]; rat) [%] | further results |
| --- | --- | --- | --- | --- |
| CC1(C)S[C@@H]2[C@H](NC(=O)[C@H](N)c3ccc(O)cc3)C(=O)N2[C@H]1C(=O)O [Amoxicillin] | 0 | Q4 |  | inhibition at 10 µM [3]: -14%; inhibition at 10 µM ([4]; Rattus norvegicus, Microglia, read-out: LPS % inhibition): 12% |
| CCCCCCCCCCCCCCCC[n+]1ccccc1 [Cetylpyridinium Bromide] | 25 | Q2 | 39 |  |
| C=C1CC[C@H](O)C/C1=C/C=C1\CCC[C@]2(C)[C@@H]([C@H](C)CCCC(C)C)CC[C@@H]12 [Cholecalciferol] | 1 |  | 0 | Quadrant (FIG. 5b) ([2]; primary HTS, 10 μM): Q4; Fibrin % inhibition ([3]; primary HTS, 10 μM, fibrin-stimulated primary microglia): −10% and −17% |
| C(=C\c1ccccc1)/CN1CCN(C(c2ccccc2)c2ccccc2)CC1 [Cinnarizine] | 1 | Q4 | 0 |  |
| NC(=O)C(c1ccccc1)(c1ccccc1)[C@@H]1CCN(CCc2ccc3c(c2)CCO3)C1 [Darifenacin Hydrobromide] | 1 |  | 0 |  |
| C[C@@H]1C[C@H]2[C@@H]3CCC4=CC(=O)C=C[C@]4(C)[C@@]3(F)[C@@H](O)C[C@]2(C)[C@@]1(O)C(=O)COP(=O)(O)O [Dexamethasone Phosphate] | 5 |  | 2 | Quadrant (FIG. 5b) [2, 6]: Q2 |
| C[C@@H]1C[C@H]2[C@@H]3CCC4=CC(=O)C=C[C@]4(C)[C@@]3(F)[C@@H](O)C[C@]2(C)[C@@]1(O)C(=O)COP(=O)(O)O [Dexamethasone sodium phosphate, reference compound] | 2 | Q2 | 3 | inhibition at 10 µM ([2]; read-out: Cherry-picked Hit (Suppl. Table 7)): > 50%; inhibition at 10 µM ([2]; read-out: Hit): > 50% |
| CCN(CC)CCOC(=O)C1(C2CCCCC2)CCCCC1 [Dicyclomine] | 0 | Q4 | 0 |  |
| Cn1c(=O)c2c(ncn2CC2OCCO2)n(C)c1=O [Doxofylline] | 0 |  |  | Quadrant (FIG. 5b) [2, 7]: Q4; inhibition at 10 µM [3, 8]: -42%; inhibition at 10 µM [4, 9]: 18% |
| CCOc1cc(NC(C)=O)ccc1C(=O)OC [Ethopabate] | 0 | Q4 | 0 |  |
| C=C1C[C@@H]2[C@H](CC[C@]3(C)C(=O)CC[C@@H]23)[C@@]2(C)C=CC(=O)C=C12 [Exemestane] | 1 |  |  | Quadrant (FIG. 5b) [2, 7]: Q4; inhibition at 10 µM [3, 8]: 22%; Fibrin % inhibition ([3]; primary microglia HTS, fibrin stimulation, compounds at 10 μM, 10 µM): 31%; inhibition at 10 µM [4, 9]: 21%; LPS % inhibition ([4]; primary microglia HTS, LPS stimulation, compounds at 10 μM; 10 µM): 34% |
| CC(C)OC(=O)C(C)(C)Oc1ccc(C(=O)c2ccc(Cl)cc2)cc1 [Fenofibrate] | 1 |  | 0 | Quadrant (FIG. 5b) [2, 7]: Q4 |
| O=c1[nH]c(=O)n([C@H]2C[C@H](O)[C@@H](CO)O2)cc1F [Floxuridine] | 1 |  | 0 | Quadrant (FIG. 5b) [2, 6]: Q4 |
| CN1C2CCCC1CC(NC(=O)c1nn(C)c3ccccc13)C2 (centres unmarked) [Granisetron Hydrochloride] | 0 |  | 0 | Quadrant (FIG. 5b) [2, 6]: Q4 |
| CN1C2CCCC1CC(NC(=O)c1nn(C)c3ccccc13)C2 (centres unmarked) [Granisetron] | 1 |  | 0 | Quadrant (FIG. 5b) [2, 6]: Q4 |
| CC(C)Cn1cnc2c(N)nc3ccccc3c21 [Imiquimod] | 0 | Q4 | 0 |  |
| CS(=O)(=O)CCNCc1ccc(-c2ccc3ncnc(Nc4ccc(OCc5cccc(F)c5)c(Cl)c4)c3c2)o1 [Lapatinib] | 1 |  | 0 | Quadrant (FIG. 5b) [2, 6]: Q4 |
| CC[C@H](C)C(=O)O[C@H]1C[C@@H](C)C=C2C=C[C@H](C)[C@H](CC[C@@H]3C[C@@H](O)CC(=O)O3)[C@H]21 [Lovastatin] | 3 | Q2 |  | inhibition at 10 µM [3]: 106%; inhibition at 10 µM [4, 10]: 87% |

| Molecule | Fibrin % cell toxicity ([1]; rat) [%] | Quadrant (FIG. 5b) [2] | LPS % cell toxicity ([5]; rat) [%] | further results |
| --- | --- | --- | --- | --- |
| CN(C)CCN(Cc1cccs1)c1ccccn1 [Methapyrilene] | 1 | Q4 | 0 |  |
| CC1(C)NC(=O)N(c2ccc([N+](=O)[O-])c(C(F)(F)F)c2)C1=O [Nilutamide] | 1 |  | 0 | Quadrant (FIG. 5b) [2, 6]: Q4 |
| C#C[C@]1(O)CC[C@H]2[C@@H]3CCC4=CC(=O)CC[C@@H]4[C@H]3CC[C@@]21C [Norethindrone] | 0 | Q4 |  | inhibition at 10 µM [3]: 9%; LPS % inhibition [4]: 15% |
| C#C[C@]1(O)CC[C@H]2[C@@H]3CCC4=CC(=O)CC[C@@H]4[C@H]3CC[C@@]21C [Norethisterone] | 1 | Q4 |  | Fibrin % inhibition [3]: 18%; LPS % inhibition [4]: 1% |
| Cc1ccccc1C(OCCN(C)C)c1ccccc1 (centres unmarked) [Orphenadrine] | 0 | Q4 | 0 |  |
| C[C@@H]1O[C@@H](O[C@H]2C[C@@H](O)[C@]3(CO)[C@H]4[C@H](O)C[C@]5(C)[C@@H](C6=CC(=O)OC6)CC[C@]5(O)[C@@H]4CC[C@]3(O)C2)[C@H](O)[C@H](O)[C@H]1O [Ouabain] | 0 |  | 0 | Quadrant (FIG. 5b) [2, 6]: Q4 |
| Clc1ccc(CO/N=C(\Cn2ccnc2)c2ccc(Cl)cc2Cl)c(Cl)c1 [Oxiconazole] | 1 | Q4 | 1 |  |
| [H]/N=C(/N)N/C(=N/[H])NCCc1ccccc1 [Phenformin] | 1 | Q4 |  | inhibition at 10 µM [3]: -30%; inhibition at 10 µM [4, 10]: 13% |
| CC(=O)[O-].[Hg+][c]1ccccc1 [Phenylmercuric Acetate] | 82 |  | 80 |  |
| CC(=O)c1ccc2c(c1)N(CCCN1CCC(CCO)CC1)c1ccccc1S2 [Piperacetazine] | 0 |  |  | Quadrant (FIG. 5b) [2, 11]: Q4; inhibition at 10 µM [3, 12]: -32%; inhibition at 10 µM [4, 13]: 48% |
| CCC1(c2ccccc2)C(=O)NCNC1=O [Primidone] | 1 | Q4 |  | inhibition at 10 µM [3]: -15%; inhibition at 10 µM [4, 10]: 12% |
| O=C(O)c1ccccc1O [Salicylic Acid] | 0 |  |  | Quadrant (FIG. 5b) [2, 11]: Q4; inhibition at 10 µM [3, 12]: -32%; inhibition at 10 µM [4, 13]: 14% |
| CN[C@H]1CC[C@@H](c2ccc(Cl)c(Cl)c2)c2ccccc21 [Sertraline] | 1 | Q4 | 0 |  |
| Clc1ccc(CSC(Cn2ccnc2)c2ccc(Cl)cc2Cl)cc1 (centres unmarked) [Sulconazole] | 1 | Q4 | 1 |  |
| O=C(CCCCCCC(=O)Nc1ccccc1)NO [Vorinostat] | 89 |  | 50 | Quadrant (FIG. 5b) ([2]; quadrant by fibrin and LPS inhibition, HTS at 10 μM): Q2 |
| Betamethasone sodium phosphate [reference compound] |  | Q2 |  | Fibrin % cell toxicity [1]: 2%; Cherry-picked Hit (Suppl. Table 7) [2]: HIT (key: HIT: Hits were defined as molecules that exhibited greater than 50% inhibition of either fibrin or LPS activation); Hit [2]: HIT (key: HIT: Hits were defined as molecules that exhibited greater than 50% inhibition of either fibrin or LPS activation); LPS % cell toxicity [5]: 3% |
| Cinnarazine |  | Q4 |  | Fibrin % cell toxicity [1]: 1%; LPS % cell toxicity [5]: 0% |
| Pyrethrins |  |  |  | Fibrin % cell toxicity [1]: 0%; LPS % cell toxicity [5]: 0% |
